How the values were obtained:
[1] = system: murine lung exposed to bleomycin; assay: Treatment of bleomycin-exposed mice with CT474 (post-disease modeling of lung fibrosis); type: in vivo, mice (C57B6 WT); details: treated from days 7 to 13, vehicle vs CT474, N=13-15 per group
Text: “Vehicle” as used herein is the substance used as a carrier for the pharmaceutical agent to include aqueous solutions or oils. Oils are derived from petroleum, animal, vegetable or synthetic origin, such as peanut oil. In FIGS. 5-7 signify “veh” signify vehicle. Flow cytometry of peripheral blood buffy coat after being treated with either vehicle or CT474. Pre-mortem Pressure-Volume curve using Sireq Flexivent in murine lung exposed to bleomycin then treated from days 7 to 13 with vehicle or CT474 is shown in FIG. 6. Soluble collagen measured by Sircol assay in murine lung (C57B6 WT) exposed to bleomycin then treated from days 7 to 13 with vehicle (n=15) or […] (n=13) is shown in FIG. 7. Statistical calculations were performed using from repeated measures. Analysis of variation (ANOVA) was used to determine differences between groups.

[2] = system: Klebsiella pneumoniae strain 43816; assay: Minimal inhibitory concentration (MIC) method, growth of Klebsiella pneumoniae in tryptic soy broth; type: cell-based
Protocol: FIG. 3 show CFU of Klebsiella pneumoniae cultured in tryptic soy broth at 37° C. for 24 h with 0, 10 nM, 100 nM, 1 μM, and 10 μM CT474 dissolved in 1% Dimethyl sulfoxide (DMSO).
Microorganisms: Klebsiella pneumoniae strain 43816 (American Type Culture Collection, Manassas, Va.) was used for the studies.
The minimal inhibitory concentration (MIC) method was used to characterize the in vitro efficacy of the compound as shown in the FIG. 3. Briefly, Klebsiella pneumoniae strain 43816 (American Type Culture Collection, Manassas, Va.) was grown overnight at 37° C. to mid-log phase in tryptic soy broth. CT474 was initially suspended with DMSO, then diluted in the culture broth with final concentrations of CT474 at 0 nM (1% DMSO alone), 10 nM, 100 nM, 1 μM, and 10 μM with 10,000 CFU Klebsiella pneumoniae in 10 mL tryptic soy broth. OD600 was measured 24 h later, then the CFU was determined using a standard curve.
Statistical calculations were performed using from repeated measures. Analysis of variation (ANOVA) was used to determine differences between groups.

CO[C@H]1C[C@@H](C)C/C(C)=C/[C@@H](C/C=C/c2cc3ccccc3c3ccccc23)C(=O)C[C@H](O)[C@@H](C)[C@@H](/C(C)=C/[C@@H]2CC[C@@H](O)[C@H](OC)C2)OC(=O)[C@@H]2CCCCN2C(=O)C(=O)[C@]2(O)O[C@H]1[C@@H](OC)C[C@H]2C [CT474]
fibrotic lung damage [1]: significant reduction
effect on the growth of Klebsiella pneumoniae (CFU determined from OD600) ([2]; 10 nM, 100 nM, 1 μM, 10 μM CT474 in 1% DMSO, tryptic soy broth, 37° C., 24 h, 10,000 CFU inoculum): increasingly suppressive effects
colony forming units (CFU) of Klebsiella pneumoniae ([2]; increase in concentration of CT474 from 10 nM upto 1 μM): consecutive decrease
